# Publication PMC7180948, “New Insights into 4-Anilinoquinazolines as Inhibitors of Cardiac Troponin I–Interacting Kinase (TNNi3K)” (Molecules, 2020)
# What was measured:
# Test in all cases: biochemical
# Parameters in all cases: KINOMEscan competition binding panel (Eurofins DiscoverX), single concentration, % inhibition
# Settings in all cases: read-out: 7 at 1 µM % inhibition
# MARK3 = MARK3 (Homo sapiens, UniProt P27448)
# In short: (§1)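 Values come from single-concentration (1 µM) profiling in the Eurofins DiscoverX KINOMEscan competition-binding platform, which covers over 400 kinases.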
# PIP5K1C = PIP5K1C (Homo sapiens, UniProt O60331)
# In short: as §1
# TRPM6 = TRPM6 (Homo sapiens, UniProt Q9BX84)
# In short: as §1
# KIT(V559D) = KIT(V559D) (Homo sapiens, UniProt P10721, V559D)
# In short: as §1
# STK16 = STK16 (Homo sapiens, UniProt O75716)
# In short: as §1
# EIF2AK1 = EIF2AK1 (Homo sapiens, UniProt Q9BQI3)
# In short: as §1
# CDK5 = CDK5 (Homo sapiens, UniProt Q00535)
# In short: as §1
# BRK = target: T1, BRK (Homo sapiens, UniProt Q13882)
# T1 construct: gene PTK6
# In short: as §1
# PIK3CD = PIK3CD (Homo sapiens, UniProt O00329)
# In short: as §1
# CAMK1B = target: T2, CAMK1B (Homo sapiens, UniProt Q6P2M8)
# T2 construct: gene PNCK
# In short: as §1
# DDR2 = DDR2 (Homo sapiens, UniProt Q16832)
# In short: as §1
# ULK1 = ULK1 (Homo sapiens, UniProt O75385)
# In short: as §1
# DRAK1 = target: T3, DRAK1 (Homo sapiens, UniProt Q9UEE5)
# T3 construct: gene STK17A
# In short: as §1
# LRRK2(G2019S) = LRRK2(G2019S) (Homo sapiens, UniProt Q5S007, G2019S)
# In short: as §1
# CSNK2A1 = CSNK2A1 (Homo sapiens, UniProt P68400)
# In short: as §1
# SgK110 = target: T4, SgK110 (Homo sapiens, UniProt P0C264)
# T4 construct: gene SBK3
# In short: as §1
# NIM1 = target: T5, NIM1 (Homo sapiens, UniProt Q8IY84)
# T5 construct: gene NIM1K
# In short: as §1
# CDKL2 = CDKL2 (Homo sapiens, UniProt Q92772)
# In short: as §1
# TYRO3 = TYRO3 (Homo sapiens, UniProt Q06418)
# In short: as §1
# AXL = AXL (Homo sapiens, UniProt P30530)
# In short: as §1
# GRK7 = GRK7 (Homo sapiens, UniProt Q8WTQ7)
# In short: as §1
# MTOR = MTOR (Homo sapiens, UniProt P42345)
# In short: as §1
# CDK3 = CDK3 (Homo sapiens, UniProt Q00526)
# In short: as §1
# DLK = target: T6, DLK (Homo sapiens, UniProt Q12852)
# T6 construct: gene MAP3K12
# In short: as §1
# PAK3 = PAK3 (Homo sapiens, UniProt O75914)
# In short: as §1
# PIK3CD, sequence (O00329 whole entry): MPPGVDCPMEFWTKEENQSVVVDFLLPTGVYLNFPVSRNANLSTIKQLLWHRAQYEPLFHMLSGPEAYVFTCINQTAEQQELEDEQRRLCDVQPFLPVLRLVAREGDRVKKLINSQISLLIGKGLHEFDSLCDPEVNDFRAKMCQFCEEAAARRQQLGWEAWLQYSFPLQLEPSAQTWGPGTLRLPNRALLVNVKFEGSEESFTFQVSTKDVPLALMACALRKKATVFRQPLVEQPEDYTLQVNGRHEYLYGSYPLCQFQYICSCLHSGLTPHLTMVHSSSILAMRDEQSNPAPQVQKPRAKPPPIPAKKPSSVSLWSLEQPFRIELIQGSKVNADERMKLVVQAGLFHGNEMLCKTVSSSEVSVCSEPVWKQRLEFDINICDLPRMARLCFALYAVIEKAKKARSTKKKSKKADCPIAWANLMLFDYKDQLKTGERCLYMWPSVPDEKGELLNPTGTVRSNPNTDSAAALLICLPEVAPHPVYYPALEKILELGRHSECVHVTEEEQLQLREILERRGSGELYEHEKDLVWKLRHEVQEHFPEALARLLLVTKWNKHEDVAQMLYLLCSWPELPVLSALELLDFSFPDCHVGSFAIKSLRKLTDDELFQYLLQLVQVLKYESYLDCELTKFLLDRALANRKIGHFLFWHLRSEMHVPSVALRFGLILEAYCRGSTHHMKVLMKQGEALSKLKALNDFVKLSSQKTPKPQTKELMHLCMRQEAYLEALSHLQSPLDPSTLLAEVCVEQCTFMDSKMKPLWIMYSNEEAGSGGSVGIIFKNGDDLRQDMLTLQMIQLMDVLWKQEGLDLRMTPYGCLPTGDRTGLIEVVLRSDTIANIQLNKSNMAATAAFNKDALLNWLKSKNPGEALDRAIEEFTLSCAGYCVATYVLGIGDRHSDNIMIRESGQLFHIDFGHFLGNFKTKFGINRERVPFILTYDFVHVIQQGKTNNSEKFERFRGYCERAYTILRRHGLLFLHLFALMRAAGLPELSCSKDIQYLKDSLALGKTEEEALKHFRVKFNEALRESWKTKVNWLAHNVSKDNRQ
# TYRO3, sequence (Q06418 whole entry): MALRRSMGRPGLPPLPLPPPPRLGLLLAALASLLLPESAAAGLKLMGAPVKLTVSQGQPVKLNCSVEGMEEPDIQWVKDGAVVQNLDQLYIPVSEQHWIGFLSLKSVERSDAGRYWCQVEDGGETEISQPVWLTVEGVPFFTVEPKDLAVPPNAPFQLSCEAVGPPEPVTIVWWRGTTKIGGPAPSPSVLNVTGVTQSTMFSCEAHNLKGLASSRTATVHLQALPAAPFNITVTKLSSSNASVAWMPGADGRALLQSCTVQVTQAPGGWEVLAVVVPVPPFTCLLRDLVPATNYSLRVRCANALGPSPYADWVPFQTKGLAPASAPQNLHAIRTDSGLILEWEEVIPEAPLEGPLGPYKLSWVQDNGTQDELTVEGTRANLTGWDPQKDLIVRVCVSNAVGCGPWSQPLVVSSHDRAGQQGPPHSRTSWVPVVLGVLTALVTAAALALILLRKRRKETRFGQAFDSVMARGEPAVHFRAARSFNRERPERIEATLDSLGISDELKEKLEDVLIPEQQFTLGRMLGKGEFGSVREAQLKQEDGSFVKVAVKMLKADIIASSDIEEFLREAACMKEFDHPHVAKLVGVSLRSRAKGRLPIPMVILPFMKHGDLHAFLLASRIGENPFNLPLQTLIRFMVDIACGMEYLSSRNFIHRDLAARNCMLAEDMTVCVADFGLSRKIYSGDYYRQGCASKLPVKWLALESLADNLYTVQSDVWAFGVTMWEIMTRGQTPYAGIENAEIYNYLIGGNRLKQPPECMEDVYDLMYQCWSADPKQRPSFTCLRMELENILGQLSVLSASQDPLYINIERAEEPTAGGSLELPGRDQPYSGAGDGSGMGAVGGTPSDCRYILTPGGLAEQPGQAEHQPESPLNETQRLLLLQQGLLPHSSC
# CDKL2, sequence (Q92772 whole entry): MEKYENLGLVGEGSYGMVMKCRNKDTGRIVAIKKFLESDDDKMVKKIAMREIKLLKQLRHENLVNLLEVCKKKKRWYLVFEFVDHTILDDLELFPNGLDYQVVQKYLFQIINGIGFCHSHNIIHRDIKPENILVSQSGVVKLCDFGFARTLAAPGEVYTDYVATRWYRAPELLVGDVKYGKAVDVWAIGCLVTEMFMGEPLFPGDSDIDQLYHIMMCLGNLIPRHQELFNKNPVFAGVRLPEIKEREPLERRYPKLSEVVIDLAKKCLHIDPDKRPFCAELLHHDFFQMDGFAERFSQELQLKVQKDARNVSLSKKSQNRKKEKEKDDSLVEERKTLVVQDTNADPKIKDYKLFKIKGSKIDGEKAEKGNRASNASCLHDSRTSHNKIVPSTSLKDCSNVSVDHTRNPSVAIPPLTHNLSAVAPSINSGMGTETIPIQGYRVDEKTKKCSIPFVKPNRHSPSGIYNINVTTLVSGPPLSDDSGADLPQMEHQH
# KIT(V559D), sequence (P10721 whole entry V559D): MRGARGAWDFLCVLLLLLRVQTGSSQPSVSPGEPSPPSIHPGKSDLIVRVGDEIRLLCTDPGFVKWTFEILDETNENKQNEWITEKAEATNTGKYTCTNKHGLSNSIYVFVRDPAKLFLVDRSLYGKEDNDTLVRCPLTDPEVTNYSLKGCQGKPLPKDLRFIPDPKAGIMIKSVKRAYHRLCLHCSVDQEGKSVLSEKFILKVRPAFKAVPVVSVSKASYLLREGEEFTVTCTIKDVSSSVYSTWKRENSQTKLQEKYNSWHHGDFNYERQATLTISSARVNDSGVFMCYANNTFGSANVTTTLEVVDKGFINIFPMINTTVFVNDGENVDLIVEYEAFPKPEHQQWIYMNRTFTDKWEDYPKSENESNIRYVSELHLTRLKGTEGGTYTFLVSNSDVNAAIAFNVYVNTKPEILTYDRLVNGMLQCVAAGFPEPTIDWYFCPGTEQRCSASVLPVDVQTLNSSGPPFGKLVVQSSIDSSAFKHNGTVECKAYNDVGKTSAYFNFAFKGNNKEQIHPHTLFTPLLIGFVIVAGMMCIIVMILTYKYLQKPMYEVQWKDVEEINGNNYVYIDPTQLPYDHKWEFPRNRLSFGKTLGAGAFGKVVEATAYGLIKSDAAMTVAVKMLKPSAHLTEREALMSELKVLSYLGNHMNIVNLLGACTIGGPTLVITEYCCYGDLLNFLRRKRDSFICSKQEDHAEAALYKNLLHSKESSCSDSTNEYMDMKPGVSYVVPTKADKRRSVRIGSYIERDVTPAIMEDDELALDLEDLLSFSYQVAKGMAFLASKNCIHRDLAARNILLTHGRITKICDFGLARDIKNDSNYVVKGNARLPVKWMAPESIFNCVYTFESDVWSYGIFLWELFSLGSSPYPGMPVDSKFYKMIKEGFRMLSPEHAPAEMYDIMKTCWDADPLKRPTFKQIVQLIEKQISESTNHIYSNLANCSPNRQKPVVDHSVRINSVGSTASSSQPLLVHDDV
# AXL, sequence (P30530 whole entry): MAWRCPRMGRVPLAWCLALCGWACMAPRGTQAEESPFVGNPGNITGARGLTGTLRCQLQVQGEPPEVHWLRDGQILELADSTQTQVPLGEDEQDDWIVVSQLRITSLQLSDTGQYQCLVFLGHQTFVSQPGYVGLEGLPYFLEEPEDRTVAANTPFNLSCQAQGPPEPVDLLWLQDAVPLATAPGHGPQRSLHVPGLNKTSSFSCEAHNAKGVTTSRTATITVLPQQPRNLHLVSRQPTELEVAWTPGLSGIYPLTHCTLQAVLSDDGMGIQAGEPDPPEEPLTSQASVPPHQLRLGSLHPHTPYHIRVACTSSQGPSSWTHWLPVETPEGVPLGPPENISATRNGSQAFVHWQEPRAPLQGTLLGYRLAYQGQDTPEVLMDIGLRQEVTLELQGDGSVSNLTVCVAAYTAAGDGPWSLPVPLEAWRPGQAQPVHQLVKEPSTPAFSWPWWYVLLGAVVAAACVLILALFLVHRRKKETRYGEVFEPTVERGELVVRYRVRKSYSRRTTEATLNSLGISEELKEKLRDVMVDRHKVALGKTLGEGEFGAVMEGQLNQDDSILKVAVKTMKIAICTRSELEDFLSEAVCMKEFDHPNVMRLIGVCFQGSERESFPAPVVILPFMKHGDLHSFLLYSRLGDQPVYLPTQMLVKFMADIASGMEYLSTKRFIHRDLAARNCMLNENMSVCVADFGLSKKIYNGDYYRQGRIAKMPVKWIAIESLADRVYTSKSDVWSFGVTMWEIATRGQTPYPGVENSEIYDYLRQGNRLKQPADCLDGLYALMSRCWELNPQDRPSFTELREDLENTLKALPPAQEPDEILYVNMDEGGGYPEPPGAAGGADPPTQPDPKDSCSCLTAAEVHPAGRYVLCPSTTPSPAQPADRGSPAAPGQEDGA
# PIP5K1C, sequence (O60331 whole entry): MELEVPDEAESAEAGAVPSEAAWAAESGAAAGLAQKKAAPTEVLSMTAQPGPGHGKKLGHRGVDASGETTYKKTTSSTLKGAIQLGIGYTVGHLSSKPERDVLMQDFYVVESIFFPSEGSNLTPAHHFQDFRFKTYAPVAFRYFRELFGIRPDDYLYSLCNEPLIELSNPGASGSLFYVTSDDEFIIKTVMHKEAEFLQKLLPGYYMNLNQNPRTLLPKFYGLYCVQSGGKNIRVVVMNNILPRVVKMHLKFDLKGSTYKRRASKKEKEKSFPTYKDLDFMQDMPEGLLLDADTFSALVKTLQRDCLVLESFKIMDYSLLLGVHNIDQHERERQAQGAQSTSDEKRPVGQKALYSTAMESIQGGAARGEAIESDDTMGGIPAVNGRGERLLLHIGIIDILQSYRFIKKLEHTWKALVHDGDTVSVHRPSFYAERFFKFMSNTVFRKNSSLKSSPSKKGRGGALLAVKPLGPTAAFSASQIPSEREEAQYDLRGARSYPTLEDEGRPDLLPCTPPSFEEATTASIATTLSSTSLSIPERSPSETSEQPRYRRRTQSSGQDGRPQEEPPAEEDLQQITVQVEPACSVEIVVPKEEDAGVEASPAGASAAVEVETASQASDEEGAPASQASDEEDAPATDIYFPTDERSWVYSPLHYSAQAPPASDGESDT
smiles,measurement,setting,value
"CNS(=O)(=O)c1ccc(N(C)C)c(Nc2ncnc3cc(OC)c(OC)cc23)c1 [compound 7, 3-((6,7-dimethoxyquinazolin-4-yl)amino)-4-(dimethylamino)-N-methylbenzenesulfonamide]",inhibition at 1 µM,MARK3,0%
same,inhibition at 1 µM,PIP5K1C,33%
same,inhibition at 1 µM,TRPM6,25%
same,inhibition at 1 µM,KIT(V559D),28%
same,inhibition at 1 µM,STK16,0%
same,inhibition at 1 µM,EIF2AK1,0%
same,inhibition at 1 µM,CDK5,0%
same,inhibition at 1 µM,BRK,0%
same,inhibition at 1 µM,PIK3CD,61%
same,inhibition at 1 µM,CAMK1B,46%
same,inhibition at 1 µM,DDR2,41%
same,inhibition at 1 µM,ULK1,18%
same,inhibition at 1 µM,DRAK1,0%
same,inhibition at 1 µM,LRRK2(G2019S),23%
same,inhibition at 1 µM,CSNK2A1,0%
same,inhibition at 1 µM,SgK110,0%
same,inhibition at 1 µM,NIM1,31%
same,inhibition at 1 µM,CDKL2,0%
same,inhibition at 1 µM,TYRO3,0%
same,inhibition at 1 µM,AXL,12%
same,inhibition at 1 µM,GRK7,23%
same,inhibition at 1 µM,MTOR,0%
same,inhibition at 1 µM,CDK3,1%
same,inhibition at 1 µM,DLK,21%
same,inhibition at 1 µM,PAK3,54%
